Measurements as given in patent publication US20220289794A1, “SYNTHETIC ANTIMICROBIAL PEPTIDES” (priority 2019, published 2022).
In brackets after ≈: the same amount, converted by molar mass. Non-standard residues stand in square brackets, D forms with d. Residues, ends and D or L forms follow the SMILES beside them. Dip = N[C@H](C(=O)O)C(c1ccccc1)c1ccccc1; 2Nal = N[C@@H](Cc1ccc2ccccc2c1)C(=O)O

Assays:
[1] = tested on: Escherichia coli (E. Coli, ATCC 25922); details: Escherichia coli (ATCC 25922); antibiotic alone
[2] = tested on: B. subtilis (ATCC-6633); assay: Broad-spectrum activity against Gram-Positive bacteria (MIC); type: cell-based; design: unit not given here
[3] = tested on: E. coli (ATCC BAA-2452); assay: Broad-spectrum activity against Gram-Negative bacteria (MIC); type: cell-based; details: Table 16, Gram-negative panel
[4] = tested on: B. cereus (ATCC-13061); assay: Broad-spectrum activity against Gram-Positive bacteria (MIC); type: cell-based; design: unit not given here
[5] = tested on: A. baumannii (ATCC BAA-1605); assay: Broad-spectrum activity against Gram-Negative bacteria (MIC); type: cell-based; details: Table 16, Gram-negative panel
[6] = tested on: P. aeruginosa (ATCC 10145); assay: as above; type: cell-based; details: Table 16, Gram-negative panel
[7] = tested on: P. aeruginosa (ATCC BAA-1744); assay: as above; type: cell-based; details: Table 16, Gram-negative panel
[8] = tested on: Methicillin-resistant Staphylococcus aureus MRSA (ATCC BAA-1556); details: ATCC BAA-1556
[9] = tested on: S. aureus ATCC 29213; details: ATCC 29213
[10] = tested on: Pseudomonas aeruginosa (ATCC 27883); details: ATCC 27883
[11] = tested on: Escherichia coli (ATCC 25922); details: ATCC 25922
[12] = tested on: Klebsiella pneumoniae (ATCC BAA-1705); details: Table 16, Gram-negative panel
[13] = tested on: human red blood cells; design: unit not given beside the values
[14] = tested on: Enterococcus faecium ATCC 27270; details: E. faecium ATCC 27270
[15] = tested on: Enterococcus faecium ATCC 700221; details: E. faecium ATCC 700221
[16] = tested on: Klebsiella pneumoniae ATCC 13883; details: Table 16, Gram-negative panel
[17] = tested on: Enterococcus faecalis ATCC 29212; details: E. faecalis ATCC 29212
[18] = tested on: Enterococcus faecalis ATCC 51575; details: E. faecalis ATCC 51575
[19] = tested on: Streptococcus pneumoniae ATCC 49619; details: S. pneumoniae ATCC 49619
[20] = tested on: Streptococcus pneumoniae ATCC 51938; details: S. pneumoniae ATCC 51938
[21] = tested on: KPC
[22] = tested on: PSA
[23] = tested on: E. coli

Structure (SMILES)	Broad-spectrum activity B. subtilis (ATCC-6633) [2]	MIC E. coli (ATCC BAA-2452) [3]	Broad-spectrum activity B. cereus (ATCC-13061) [4]	MIC A. baumannii (ATCC BAA-1605) [5]	MIC P. aeruginosa (ATCC 10145) [6]	MIC P. aeruginosa (ATCC BAA-1744) [7]	MIC MRSA ATCC BAA-1556 [8]	MIC S. aureus ATCC 29213 [9]	MIC P. aeruginosa ATCC 27883 [10]	MIC E. coli ATCC 25922 [11]	MIC K. pneumonia (ATCC BAA-1705) [12]	HC50 [13]	Broad-spectrum activity E. faecium (ATCC 27270) [14]	Broad-spectrum activity E. faecium (ATCC 700221) [15]	MIC K. pneumonia (ATCC 13883) [16]	Broad-spectrum activity E. faecalis (ATCC 29212) [17]	Broad-spectrum activity E. faecalis (ATCC 51575) [18]	Broad-spectrum activity S. pneumoniae (ATCC 49619) [19]	Broad-spectrum activity S. pneumoniae (ATCC 51938) [20]	further results
O=C(O)c1cn(C2CC2)c2cc(N3CCNCC3)c(F)cc2c1=O [Ciprofloxacin, reference compound]																				MIC of antibiotic [1]: 64 µg/mL
N=C(N)NCCC[C@@H]1NC(=O)[C@H](CCCNC(=N)N)NC(=O)[C@H](CCCNC(=N)N)NC(=O)[C@H](C(c2ccccc2)c2ccccc2)NC(=O)[C@H](C(c2ccccc2)c2ccccc2)NC(=O)[C@H](C(c2ccccc2)c2ccccc2)NC(=O)[C@H](CCCNC(=N)N)NC1=O [IFX-008, c[Arg-Arg-Arg-Arg-Dip-Dip-Dip]] (cyclo(RRRR[Dip][Dip][Dip]))	1.5	6.2 µg/mL (≈ 4.79 µM)	6.2	12.5 µg/mL (≈ 9.66 µM)	25 µg/mL (≈ 19.3 µM)	12.5 µg/mL (≈ 9.66 µM)	1.5 µg/mL (≈ 1.16 µM)	1.5 µg/mL (≈ 1.16 µM)	12.5 µg/mL (≈ 9.66 µM)	12.5 µg/mL (≈ 9.66 µM)	12.5 µg/mL (≈ 9.66 µM)	190	3.1	1.5	50 µg/mL (≈ 38.6 µM)	6.2	12.5	25	12.5	
N=C(N)NCCC[C@@H]1NC(=O)[C@H](CCCNC(=N)N)NC(=O)[C@H](C(c2ccccc2)c2ccccc2)NC(=O)[C@H](C(c2ccccc2)c2ccccc2)NC(=O)[C@H](CCCNC(=N)N)NC(=O)[C@H](CCCNC(=N)N)NC(=O)[C@H](C(c2ccccc2)c2ccccc2)NC1=O [IFX-016, c[Arg-Dip-Arg-Arg-Dip-Dip-Arg]] (cyclo(R[Dip]RR[Dip][Dip]R))	1.5	12.5 µg/mL (≈ 9.66 µM)	6.2	12.5 µg/mL (≈ 9.66 µM)	25 µg/mL (≈ 19.3 µM)	12.5 µg/mL (≈ 9.66 µM)	6.2 µg/mL (≈ 4.79 µM)	6.2 µg/mL (≈ 4.79 µM)	50 µg/mL (≈ 38.6 µM)	>100 µg/mL	25 µg/mL (≈ 19.3 µM)	310	3.1	1.5	50 µg/mL (≈ 38.6 µM)	6.2	12.5	25	12.5	
N=C(N)NCCC[C@@H]1NC(=O)[C@H](CCCNC(=N)N)NC(=O)[C@H](Cc2ccc3ccccc3c2)NC(=O)[C@H](Cc2ccc3ccccc3c2)NC(=O)[C@H](CCCNC(=N)N)NC(=O)[C@H](CCCNC(=N)N)NC(=O)[C@H](Cc2ccc3ccccc3c2)NC1=O [IFX-018, c[Arg-NaI-Arg-Arg-NaI-NaI-Arg]] (cyclo(R[2Nal]RR[2Nal][2Nal]R))	1.5	12.5 µg/mL (≈ 10.3 µM)	3.1	6.2 µg/mL (≈ 5.1 µM)	50 µg/mL (≈ 41.1 µM)	25 µg/mL (≈ 20.6 µM)	6.2 µg/mL (≈ 5.1 µM)	6.2 µg/mL (≈ 5.1 µM)	>100 µg/mL	25 µg/mL (≈ 20.6 µM)	25 µg/mL (≈ 20.6 µM)	300	1.5	1.5	50 µg/mL (≈ 41.1 µM)	6.2	12.5	25	12.5	
N=C(N)NCCC[C@@H]1NC(=O)[C@H](CCCNC(=N)N)NC(=O)[C@H](Cc2ccc3ccccc3c2)NC(=O)[C@H](Cc2ccc3ccccc3c2)NC(=O)[C@H](CCCNC(=N)N)NC(=O)[C@H](CCCNC(=N)N)NC(=O)[C@H](Cc2ccc3ccccc3c2)NC1=O [IFX-019, c[Arg-Arg-NaI-NaI-Arg-Arg-NaI]] (cyclo(R[2Nal]RR[2Nal][2Nal]R))	1.5	6.2 µg/mL (≈ 5.1 µM)	1.5	12.5 µg/mL (≈ 10.3 µM)	25 µg/mL (≈ 20.6 µM)	12.5 µg/mL (≈ 10.3 µM)	6.2 µg/mL (≈ 5.1 µM)	6.2 µg/mL (≈ 5.1 µM)	50 µg/mL (≈ 41.1 µM)	50 µg/mL (≈ 41.1 µM)	25 µg/mL (≈ 20.6 µM)	325	1.5	1.5	50 µg/mL (≈ 41.1 µM)	3.1	6.2	25	12.5	
N=C(N)NCCC[C@@H]1NC(=O)[C@H](CCCNC(=N)N)NC(=O)[C@H](CCCNC(=N)N)NC(=O)[C@H](Cc2c[nH]c3ccccc23)NC(=O)[C@H](Cc2c[nH]c3ccccc23)NC(=O)[C@H](Cc2c[nH]c3ccccc23)NC(=O)[C@H](Cc2c[nH]c3ccccc23)NC(=O)[C@H](CCCNC(=N)N)NC(=O)[C@H](CCCNC(=N)N)NC1=O [[R5W4] IFX-301]																				MIC [21]: 32 µg/mL (≈ 21 µM); MIC [22]: 32 µg/mL (≈ 21 µM); MIC [23]: 16 µg/mL (≈ 10.5 µM)
